Measured values: article PMC5259791 (Scientific Reports, 2017)
“Also recorded” adds a separate entry of the source.

What was measured:
PPARγ = target: T1, PPARγ (Homo sapiens, UniProt P37231); assay: SPR on immobilized PPARγ; type: binding; settings: SPR, immobilized PPARγ
T1 sequence (P37231 195-477 isoform P37231-2 limits assumed): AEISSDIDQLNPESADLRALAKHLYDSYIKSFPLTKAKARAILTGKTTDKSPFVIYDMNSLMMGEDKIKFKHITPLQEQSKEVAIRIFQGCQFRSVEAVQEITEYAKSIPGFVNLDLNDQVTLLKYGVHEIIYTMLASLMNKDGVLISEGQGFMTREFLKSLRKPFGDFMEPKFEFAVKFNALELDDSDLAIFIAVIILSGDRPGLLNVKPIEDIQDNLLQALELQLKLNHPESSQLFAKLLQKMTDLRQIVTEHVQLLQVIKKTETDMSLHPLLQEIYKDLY
Experimental: ; SPR analysis was also performed using the immobilized PPARγ LBD to evaluate if this protein portion was involved in the interaction with 1; […]. Conversely, no affinity of the diterpene towards Hsp60 was observed (Fig. 2c).
To assess the potential of 1 to act as a PPARγ modulator, we investigated the structural and functional aspects of its interaction with this nuclear receptor. To define the structural features required by 1 for an efficient interaction with PPARγ, as a first step, we performed SPR analyses using some diterpenes displaying structural relationship with 1 (compounds 2–9, Fig. 1). […]. SPR analyses were carried out on a BIACORE 3000 instrument (GE-Healthcare). PPARα, PPARγ, PPARδ and HSP60 surfaces were prepared on research−grade CM5 sensor chips (GE Healthcare). Proteins (100 μg/ml in 10 mM CH3COONa, pH 5.0) were immobilized using a standard amine−coupling protocol, to obtain densities of 3–5 kRU. Testing compounds were dissolved in 100% DMSO to obtain 4 mM solutions, and then diluted in PBS containing variable amounts of DMSO, achieving a final DMSO concentration of 0.1%. […]. SPR experiments and data elaboration were carried out as reported elsewhere.

HT-29 cells = assay: HT-29 cell growth (cell counting); settings: GW9662 10 μM 6 h, then compound 10 μM for 24 and 48 h
Experimental: Data are the mean ± SD of three independent experiments performed in duplicate giving similar results. Significance is indicated as *p ≤ 0.05, **p ≤ 0.01 and ***p ≤ 0.001. (b) HT29 cells were seeded in 24-well in order to reach the density of cells/cm^2 in standard conditions (10^5 cells). […] The experiments were performed in triplicate and the data expressed as mean ± SD. Significance is indicated as **p ≤ 0.01 and ***p ≤ 0.001.

Row | Compound | KD (PPARγ) | further results
1 | C=C1C2CCC3C(CCC4[C@@H](C(=O)OC)C[C@@H](OC(C)=O)C[C@]43C)(C2)[C@H]1OC(C)=O (some centres unmarked) [Compound 6] | No binding | –
2 | C=C1C2CCC3C(CCC4[C@@H](C(=O)OC)C[C@@H](O)C[C@]43C)(C2)[C@H]1O (some centres unmarked) [Compound 2] | – | Kd (PPARγ): 1.86 ± 0.078 µM; koff (PPARγ): 0.051 s⁻¹
3 | C=C1C2CCC3C(CCC4[C@@H](C(=O)OC)C[C@@H](O)C[C@]43C)(C2)[C@@H]1O (some centres unmarked) [Compound 3] | – | Kd (PPARγ): 4.59 ± 0.206 µM; koff (PPARγ): 0.096 s⁻¹
4 | C=C1C2CCC3C(CCC4[C@@H](C(=O)O)C[C@@H](O)C[C@]43C)(C2)[C@H]1O (some centres unmarked) [Compound 4] | No binding | –
5 | CC1CC23CC1CCC2[C@]1(C)C[C@H](C)C[C@](C)(C(=O)O)C1CC3=O (some centres unmarked) [Compound 7] | No binding | –
6 | CN(CCOc1ccc(CC2SC(=O)NC2=O)cc1)c1ccccn1 (centres unmarked) [Rosiglitazone, reference compound] | – | cell counts after GW9662 pre-treatment versus compound alone (HT-29 cells): less pronounced effect

The next lines start with results.

Row | KD (PPARγ) | Compound | further results
7 | No binding | C=C1C2CCC3C(CCC4[C@@H](CO)C[C@@H](O)C[C@]43C)(C2)[C@H]1O (some centres unmarked) [Compound 5] | –
8 | not detected; also recorded: No binding | C=C1C(=O)C23CCC4[C@@]5(C)C[C@@H](O)C[C@@]4(OC5=O)[C@@]2(C)CC[C@]1(O)C3 (some centres unmarked) [Compound 9] | –
9 | not detected; also recorded: No binding | C=C1C(=O)C23C(O)C1CCC2C12COC3(O)C(O)C1C(C)(C)CCC2O (centres unmarked) [Compound 8] | –
